Experimental data taken from article PMC9077138, “An investigation on 3-acetyl-7-methoxy-coumarin Schiff bases and their Ru(II) metallates with potent antiproliferative activity and enhanced LDH and NO release” (RSC Advances, 2018).

Assays:
HSA = target: T1, HSA (Homo sapiens, UniProt P02768); assay: HSA tryptophan fluorescence quenching; assay type: binding; settings: for Kd / Quenching constant kq / Stern–Volmer KSV / number of binding sites n / Binding constant Kbin: HSA; for Kd / Binding constant Kbin: Scatchard equation; for Kd: read-out: Binding constant Kbin (converted); for decrease of HSA fluorescence intensity: compounds 10–100 μM, HSA 10 μM
T1 construct: purchased HiMedia (Mumbai, India)
Text: The obtained results confirmed the interaction of the ligands and complexes with serum albumins. The absorption spectra of the serum albumins in the absence and presence of ligands H2L^1–4 and the complexes 1–4 are given in Fig. S29 in the ESI. ^† On adding ligands and complexes 1–4 to albumins, the absorbance intensity of serum albumins was decreased with a red shift of 2 nm. The observed changes indicated a static quenching mechanism of serum albumins by the ligands and complexes (1–4). To obtain a quantitative insight into the quenching progression, the Stern–Volmer quenching constant (KSV) and the quenching constant (Kq) were calculated from the Stern–Volmer equation using the Io/ICorrversus [Q] plot (Table 4).[53] The observed linearity in the plots (Fig. 13) indicated the ability of the compounds to quench the emission intensity of serum albumins and the order of quenching constant of the compounds is complex 3 > complex 2 > complex 1 > complex 4 > H2L^3 > H2L^2 > H2L^1 > H2L^4.
Furthermore, the equilibrium binding constant and number of binding sites were evaluated by using the Scatchard equation. The Kbin values were derived from the graph between log[(Fo − F)/F] and log[Q] From the results, we confirmed that the Ru(II) complexes having a large hydrophobic area can interact more efficiently than the ligands with serum albumins via a static pathway. The higher binding affinity of the complexes over the ligands may be due to the efficient binding of protein moiety with the complexed metal ions. Here, the binding affinities of the complexes with serum albumins followed the same order as those with DNA binding studies, complex 3 > complex 2 > complex 1 > complex 4 > H2L^3 > H2L^2 > H2L^1 > H2L^4. Variation in the binding affinity of the compounds with serum albumins depends on the electron-donating ability of the ligand, i.e. the substitution on the N-terminal nitrogen atom. The binding capability of the compounds to serum albumins increased with the increase in electron-donating ability of the substituent on the terminal nitrogen of the coordinated thiosemicarbazone ligand. The obtained quenching constant and binding constant values of these new cyclometallated ruthenium(II) complexes agree well with those reported for other ruthenium(II) complexes.[31,44,54–56] […]
Serum albumin binding study
Bovine Serum Albumin (BSA) and human serum albumin were purchased from Hi Media, The protein binding study was performed by tryptophan fluorescence quenching experiments using bovine serum albumin (BSA, 10 µM) or human serum albumin (HSA, 10 µM) as the substrate in phosphate buffer (pH= 7.2). Quenching of the emission intensity of tryptophan residues of BSA at 346 nm (excitation wavelength at 280 nm)/ HSA at 345 nm (excitation wavelength at 290 nm) was monitored using ligands and complexes as quenchers with increasing concentration (10-100µM). Synchronous fluorescence spectra of BSA or HSA with various concentrations of the complexes were obtained from 300 to 400 nm when ∆λ = 60 nm and from 290 to 500 nm when ∆λ = 15 nm. For synchronous fluorescence spectra, the same concentrations of serum albumins and the compounds were also used and the spectra were measured at two different Δλ values (difference between the excitation and emission wavelengths of BSA), such as 15 and 60 nm. Fluorescence and synchronous measurements were performed using a 1 cm quartz cell on a JASCO FP 6600 spectrofluorimeter.
The quenching data can be analyzed according to the Stern-Volmer equation, […]
Io/Icorr =K SV[Q]+1 Eq (S2) where Iₒ is the emission intensity in the absence of compound, Icorr is the corrected emission intensity in the presence of compound, KSV is the quenching constant and [Q] is the concentration of the compound.
In order to correct the inner filter effect, the following equation used Icorr = Iobs*10 (Aexc+Aem)/2 where Icorr is the corrected fluorescence value, Iobs the measured fluorescence value, Aexc is […]

S. aureus = assay: In vitro antibacterial assay (zone of inhibition, MIC); assay type: cell-based, Staphylococcus aureus; settings: for zone of inhibition at 50 µg/mL / zone of inhibition at 100 µg/mL: Staphylococcus aureus; for Minimum inhibitory concentration (MIC); head: IC50 VALUES / Zone of inhibition: S. aureus
Description: The free ligands and their cyclometallated ruthenium(II) carbonyl complexes were screened for their in vitro antimicrobial activity against certain pathogenic bacterial and fungal species at three different concentrations using disc diffusion method.
(§1) Antimicrobial activities of [RuHClCO(PPh3)3], ligands H2L^1–4 and new organometallic Ru(II) complexes (1–4) were evaluated by agar well diffusion method[76] as reported, by taking Staphylococcus aureus, Streptococcus pneumonie, Pseudomonas aeruginosa, Salmonella paratyphi and fungus such as Candida albicans, Trichophyton rubrum, Aspergillus niger, Aspergillus fumigatus and Candida tropicalis. The above said all test organisms were obtained from the MTCC, Chandigarh, India and Microbiological laboratory, Coimbatore, Tamil Nadu, India. The antimicrobial activity of the test compounds was checked with various concentrations (25 μg ml^−1, 50 μg ml^−1 and 100 μg ml^−1) against all the test pathogens. Gentamicin and ketoconazole were used as positive controls to study the antibacterial and antifungal activities respectively. Each experiment was performed in triplicate and the results are represented as average zone of inhibition and minimum inhibitory concentration of all the test pathogens.

Aspergillus fumigatus = assay: In vitro antifungal assay (zone of inhibition, MIC); assay type: cell-based
Candida tropicalis = assay: as above; assay type: cell-based
Trichophyton rubrum = assay: as above; assay type: cell-based
S. paratyphi = assay: In vitro antibacterial assay (zone of inhibition, MIC); assay type: cell-based, Salmonella paratyphi; settings: for zone of inhibition at 50 µg/mL / zone of inhibition at 100 µg/mL: Salmonella enterica
Text: The free ligands and their cyclometallated ruthenium(II) carbonyl complexes were screened for their in vitro antimicrobial activity against certain pathogenic bacterial and fungal species at three different concentrations using disc diffusion method. […] Tested complexes had better antimicrobial activity than the ligands against all pathogens. This may be explained by Tweedy's chelation theory.[61] Coordination of ligands reduce the polarity of the metal ion essentially by partial sharing of its positive charge with the donor groups within the chelate ring system formed during the coordination and leading to the increase in lipophilic nature of the central metal atom, which favours the effective permeation through the lipid layer of microorganism.[61,62] […] When tested against T. rubrum, the activity of the complexes in the order of 3 > 2 > 1 > 4. In antibacterial studies, the complex 3 was effective against S. aureus followed by complex 2, 1 and 4 and in the case of S. pneumonie the activity of the complexes follows the order of 3 > 1 > 4 > 2. […] When tested against S. paratyphi complex 1 stood out as good followed by the complexes 4, 3 and 2 respectively.
as §1

T1 sequence (P02768 25-609): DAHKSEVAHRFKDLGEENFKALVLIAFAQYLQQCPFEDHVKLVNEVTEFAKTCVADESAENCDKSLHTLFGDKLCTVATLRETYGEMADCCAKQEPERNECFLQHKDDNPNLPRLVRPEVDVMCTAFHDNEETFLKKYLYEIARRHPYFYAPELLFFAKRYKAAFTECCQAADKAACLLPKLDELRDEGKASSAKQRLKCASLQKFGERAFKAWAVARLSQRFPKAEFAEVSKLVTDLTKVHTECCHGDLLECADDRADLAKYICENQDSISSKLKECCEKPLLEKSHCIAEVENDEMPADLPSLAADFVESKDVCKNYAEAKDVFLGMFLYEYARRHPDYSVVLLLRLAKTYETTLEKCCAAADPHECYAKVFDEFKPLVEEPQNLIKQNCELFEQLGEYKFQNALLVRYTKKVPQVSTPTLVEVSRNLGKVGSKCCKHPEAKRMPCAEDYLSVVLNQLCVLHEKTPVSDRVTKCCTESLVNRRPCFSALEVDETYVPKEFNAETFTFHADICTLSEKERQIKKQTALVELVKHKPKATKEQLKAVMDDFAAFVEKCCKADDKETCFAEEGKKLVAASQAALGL

Compound	Kd (HSA)	zone of inhibition at 50 µg/mL (S. aureus)	zone of inhibition at 100 µg/mL (S. aureus)	zone of inhibition at 50 µg/mL (Aspergillus fumigatus)	zone of inhibition at 100 µg/mL (Aspergillus fumigatus)	zone of inhibition at 50 µg/mL (Candida tropicalis)	zone of inhibition at 100 µg/mL (Candida tropicalis)	zone of inhibition at 50 µg/mL (Trichophyton rubrum)	zone of inhibition at 100 µg/mL (Trichophyton rubrum)	zone of inhibition at 50 µg/mL (S. paratyphi; 50 µg/ml)	zone of inhibition at 100 µg/mL (S. paratyphi; 100 µg/ml)	Quenching constant kq (HSA)	Stern–Volmer KSV (HSA)	number of binding sites n (HSA)	Binding constant Kbin (HSA)	decrease of HSA fluorescence intensity (HSA)	Minimum inhibitory concentration (MIC); head: IC50 VALUES (S. aureus)	Zone of inhibition (S. aureus; 50 µg/ml)	Zone of inhibition (S. aureus; 100 µg/ml)	Minimum inhibitory concentration (MIC); head: IC50 VALUES (Aspergillus fumigatus)	further results
CNC(=S)NN=C(C)c1cc2ccc(OC)cc2oc1=O [H2L^2, ((1E)-1-(1-(7-methoxy-2-oxo-2H-chromen-3-yl)ethylidene) 4(N)-methylthiosemicarbazone)]	392 µM	12.1 ± 0.25 mm	17.5 ± 0.28 mm	11.8 ± 0.41 mm	18.3 ± 0.22 mm	11.5 ± 0.75 mm	17.1 ± 0.46 mm	11.3 ± 0.17 mm	17.4 ± 0.51 mm	13.43 ± 0.12 mm	16.2 ± 0.57 mm	–	–	–	–	–	–	–	–	–	–
COc1ccc2[c]3c(c(=O)oc2c1)C(C)=[N+]1N=C(N)[S][Ru-4]31([C]#[O+])([P+](c1ccccc1)(c1ccccc1)c1ccccc1)[P+](c1ccccc1)(c1ccccc1)c1ccccc1 [Complex 1, [Ru(7MAC-tsc)(CO)(PPh3)2]]	–	–	–	–	–	–	–	–	–	–	–	0.741 ± 0.010 × 10^12 M^−1 s^−1	0.741 ± 0.010 × 10^4 M^−1	1.1329 ± 0.018	2.273 ± 0.017 × 10^4 M^−1	41.01%	16.35 ± 0.21 µM	12.16±0.11 mm	18.09±0.15 mm	15.56 ± 0.11 µM	Zone of inhibition (Aspergillus fumigatus; 50 µg/ml): 12.31±0.62 mm; Zone of inhibition (Aspergillus fumigatus; 100 µg/ml): 19.64±0.65 mm; Minimum inhibitory concentration (MIC); head: IC50 VALUES (Candida tropicalis): 15.15 ± 0.11 µM; Zone of inhibition (Candida tropicalis; 50 µg/ml): 12.82±0.34 mm; Zone of inhibition (Candida tropicalis; 100 µg/ml): 18.51±0.54 mm; Minimum inhibitory concentration (MIC); head: IC50 VALUES (Trichophyton rubrum): 15.29 ± 0.29 µM; Zone of inhibition (Trichophyton rubrum; 50 µg/ml): 11.57±0.22 mm; Zone of inhibition (Trichophyton rubrum; 100 µg/ml): 17.56±0.13 mm; Zone of inhibition (S. paratyphi; 50 µg/ml): 12.55±0.04 mm; Zone of inhibition (S. paratyphi; 100 µg/ml): 18.95±0.31 mm
CCNC(=S)NN=C(C)c1cc2ccc(OC)cc2oc1=O [H2L^3, ((1E)-1-(1-(7-methoxy-2-oxo-2H-chromen-3-yl)ethylidene) 4(N)-ethylthiosemicarbazone)]	382 µM	12.3 ± 0.41 mm	15.6 ± 0.65 mm	12.2 ± 0.51 mm	18.2 ± 0.24 mm	12.3 ± 0.51 mm	17.2 ± 0.51 mm	13.56 ± 0.05 mm	19.1 ± 0.21 mm	12.2 ± 0.25 mm	17.1 ± 0.32 mm	–	–	–	–	–	–	–	–	–	–
COc1ccc2cc(C(C)=NNC(N)=S)c(=O)oc2c1 [H2L^1, ((1E)-1-(1-(7-methoxy-2-oxo-2H-chromen-3-yl)ethylidene)thiosemicarbazone)]	477 µM	13 ± 0.23 mm	17.19 ± 0.16 mm	11.2 ± 0.73 mm	17.4 ± 0.22 mm	11.93 ± 0.01 mm	17.4 ± 0.51 mm	13.2 ± 0.16 mm	17.3 ± 0.51 mm	13.2 ± 0.77 mm	16.5 ± 0.46 mm	–	–	–	–	–	–	–	–	–	–
CNC1=N[N+]2=C(C)c3[c](c4ccc(OC)cc4oc3=O)[Ru-4]2([C]#[O+])([P+](c2ccccc2)(c2ccccc2)c2ccccc2)([P+](c2ccccc2)(c2ccccc2)c2ccccc2)[S]1 [Complex 2, [Ru(7MAC-mtsc)(CO)(PPh3)2]]	–	–	–	–	–	–	–	–	–	–	–	1.088 ± 0.030 × 10^12 M^−1 s^−1	1.088 ± 0.030 × 10^4 M^−1	1.1859 ± 0.004	6.341 ± 0.039 × 10^4 M^−1	50.56%	15.90 ± 0.16 µM	13.12±0.41 mm	18.65±0.13 mm	14.70 ± 0.1 µM	Zone of inhibition (Aspergillus fumigatus; 50 µg/ml): 12.61±0.71 mm; Zone of inhibition (Aspergillus fumigatus; 100 µg/ml): 17.36±0.45 mm; Minimum inhibitory concentration (MIC); head: IC50 VALUES (Candida tropicalis): 13.46 ± 0.15 µM; Zone of inhibition (Candida tropicalis; 50 µg/ml): 12.64±0.15 mm; Zone of inhibition (Candida tropicalis; 100 µg/ml): 19.52±0.27 mm; Minimum inhibitory concentration (MIC); head: IC50 VALUES (Trichophyton rubrum): 15.14 ± 0.24 µM; Zone of inhibition (Trichophyton rubrum; 50 µg/ml): 12.16±0.15 mm; Zone of inhibition (Trichophyton rubrum; 100 µg/ml): 17.45±0.35 mm; Zone of inhibition (S. paratyphi; 50 µg/ml): 13.41±0.01 mm; Zone of inhibition (S. paratyphi; 100 µg/ml): 18.45±0.51 mm
COc1ccc2cc(/C(C)=N\NC(=S)Nc3ccccc3)c(=O)oc2c1 [H2L^4, ((1E)-1-(1-(7-methoxy-2-oxo-2H-chromen-3-yl)ethylidene) 4(N)-phenylthiosemicarbazone)]	858 µM	15.4 ± 0.52 mm	18.5 ± 0.73 mm	11.3 ± 0.33 mm	18.22 ± 0.14 mm	12.2 ± 0.23 mm	19.2 ± 0.32 mm	12.4 ± 0.32 mm	16.4 ± 0.66 mm	12.2 ± 0.51 mm	16.4 ± 0.51 mm	–	–	–	–	–	–	–	–	–	–
COc1ccc2[c]3c(c(=O)oc2c1)C(C)=[N+]1N=C(Nc2ccccc2)[S][Ru-4]31([C]#[O+])([P+](c1ccccc1)(c1ccccc1)c1ccccc1)[P+](c1ccccc1)(c1ccccc1)c1ccccc1 [Complex 4, [Ru(7MAC-ptsc)(CO)(PPh3)2]]	–	–	–	–	–	–	–	–	–	–	–	0.675 ± 0.008 × 10^12 M^−1 s^−1	0.675 ± 0.008 × 10^4 M^−1	0.9118 ± 0.025	0.297 ± 0.024 × 10^4 M^−1	39.80%	18.25 ± 0.11 µM	12.21±0.42 mm	18.11±0.11 mm	14.45 ± 0.13 µM	Zone of inhibition (Aspergillus fumigatus; 50 µg/ml): 12.36±0.52 mm; Zone of inhibition (Aspergillus fumigatus; 100 µg/ml): 18.15±0.45 mm; Minimum inhibitory concentration (MIC); head: IC50 VALUES (Candida tropicalis): 13.54 ± 0.21 µM; Zone of inhibition (Candida tropicalis; 50 µg/ml): 12.43±0.12 mm; Zone of inhibition (Candida tropicalis; 100 µg/ml): 17.13±0.57 mm; Minimum inhibitory concentration (MIC); head: IC50 VALUES (Trichophyton rubrum): 15.52 ± 0.27 µM; Zone of inhibition (Trichophyton rubrum; 50 µg/ml): 12.41±0.56 mm; Zone of inhibition (Trichophyton rubrum; 100 µg/ml): 18.42±0.18 mm; Zone of inhibition (S. paratyphi; 50 µg/ml): 12.31±0.38 mm; Zone of inhibition (S. paratyphi; 100 µg/ml): 17.55±0.54 mm
